Data taken from ChEMBL document CHEMBL3885881, “DrugMatrix”.

Species: Rattus norvegicus
Experiment: DrugMatrix - Regimen: Daily Repeat
Type: toxicity, organism-based, Sprague-Dawley
Set-up: regimen Daily Repeat, gender Male, age 6-8 weeks
Details: in vivo, po, 0 mg/kg, route oral GAVAGE, dose level Control, […]; for ABSOLUTE BASOPHIL / ABSOLUTE EOSINOPHIL / ABSOLUTE LYMPHOCYTE / ABSOLUTE MONOCYTE / ABSOLUTE SEGMENTED NEUTROPHIL / BASOPHIL / EOSINOPHIL / ERYTHROCYTE COUNT / HEMATOCRIT / HEMOGLOBIN / LEUKOCYTE COUNT / LYMPHOCYTE / MEAN CORPUSCULAR HEMOGLOBIN / MEAN CORPUSCULAR HEMOGLOBIN CONCENTRATION / MEAN CORPUSCULAR VOLUME / MONOCYTE / NEUTROPHIL / NUCLEATED RED BLOOD CELLS / PLATELET COUNT: tissue Blood; for ALANINE AMINOTRANSFERASE / ALBUMIN / ALKALINE PHOSPHATASE / ASPARTATE AMINOTRANSFERASE / BLOOD UREA NITROGEN / CARBON DIOXIDE / CHLORIDE / CHOLESTEROL / CREATINE PHOSPHOKINASE / CREATININE / GLUCOSE / LACTATE DEHYDROGENASE / LIPASE / PHOSPHORUS / POTASSIUM / SODIUM / TOTAL BILIRUBIN / TOTAL PROTEIN / URIC ACID: tissue Plasma

Structure (SMILES): CC(C)(Oc1ccc(CCNC(=O)c2ccc(Cl)cc2)cc1)C(=O)O [BEZAFIBRATE]
- ABSOLUTE BASOPHIL (72 h, time 3 day): 0 CELLS/uL
- ABSOLUTE EOSINOPHIL (72 h, time 3 day): 37.33 CELLS/uL
- ABSOLUTE LYMPHOCYTE (72 h, time 3 day): 6295.33 CELLS/uL
- ABSOLUTE MONOCYTE (72 h, time 3 day): 122.17 CELLS/uL
- ABSOLUTE SEGMENTED NEUTROPHIL (72 h, time 3 day): 861.83 CELLS/uL
- BASOPHIL (72 h, time 3 day): 0%
- EOSINOPHIL (72 h, time 3 day): 0.5%
- ERYTHROCYTE COUNT (72 h, time 3 day): 5.2 x10E6/uL
- HEMATOCRIT (72 h, time 3 day): 32.58%
- HEMOGLOBIN (72 h, time 3 day): 12.95 G/DL
- LEUKOCYTE COUNT (72 h, time 3 day): 7.32 x10E3/uL
- LYMPHOCYTE (72 h, time 3 day): 86%
- MEAN CORPUSCULAR HEMOGLOBIN (72 h, time 3 day): 24.93 pg
- MEAN CORPUSCULAR HEMOGLOBIN CONCENTRATION (72 h, time 3 day): 39.77 G/DL
- MEAN CORPUSCULAR VOLUME (72 h, time 3 day): 62.65 fL
- MONOCYTE (72 h, time 3 day): 1.67%
- NEUTROPHIL (72 h, time 3 day): 11.83%
- NUCLEATED RED BLOOD CELLS (72 h, time 3 day): 0 /100WBC
- PLATELET COUNT (72 h, time 3 day): 1029 x10E3/uL
- ALANINE AMINOTRANSFERASE (72 h, time 3 day): 63.67 u/L
- ALBUMIN (72 h, time 3 day): 4.12 G/DL
- ALKALINE PHOSPHATASE (72 h, time 3 day): 329.83 u/L
- ASPARTATE AMINOTRANSFERASE (72 h, time 3 day): 77.67 u/L
- BLOOD UREA NITROGEN (72 h, time 3 day): 18 mg/dL
- CARBON DIOXIDE (72 h, time 3 day): 29.67 mmol/L
- CHLORIDE (72 h, time 3 day): 102.67 MEQ/L
- CHOLESTEROL (72 h, time 3 day): 64.5 mg/dL
- CREATINE PHOSPHOKINASE (72 h, time 3 day): 178.67 u/L
- CREATININE (72 h, time 3 day): 0.18 mg/dL
- GLUCOSE (72 h, time 3 day): 163.83 mg/dL
- LACTATE DEHYDROGENASE (72 h, time 3 day): 75.83 u/L
- LIPASE (72 h, time 3 day): 10 u/L
- PHOSPHORUS (72 h, time 3 day): 8.28 mg/dL
- POTASSIUM (72 h, time 3 day): 4.79 MEQ/L
- SODIUM (72 h, time 3 day): 142.22 MEQ/L
- TOTAL BILIRUBIN (72 h, time 3 day): 0.22 mg/dL
- TOTAL PROTEIN (72 h, time 3 day): 5.78 G/DL
- URIC ACID (72 h, time 3 day): 0.87 mg/dL
- BASOPHIL (120 h, time 5 day): 0.32%
- EOSINOPHIL (120 h, time 5 day): 0.58%
- ERYTHROCYTE COUNT (120 h, time 5 day): 7.26 x10E6/uL
- HEMATOCRIT (120 h, time 5 day): 46.94%
- HEMOGLOBIN (120 h, time 5 day): 14.9 G/DL
- LEUKOCYTE COUNT (120 h, time 5 day): 8.69 x10E3/uL
- LYMPHOCYTE (120 h, time 5 day): 81.52%
- MEAN CORPUSCULAR HEMOGLOBIN (120 h, time 5 day): 20.58 pg
- MEAN CORPUSCULAR HEMOGLOBIN CONCENTRATION (120 h, time 5 day): 31.8 G/DL
- MEAN CORPUSCULAR VOLUME (120 h, time 5 day): 64.68 fL
- MONOCYTE (120 h, time 5 day): 2.16%
- NEUTROPHIL (120 h, time 5 day): 13.88%
- PLATELET COUNT (120 h, time 5 day): 1531.2 x10E3/uL
- ALANINE AMINOTRANSFERASE (120 h, time 5 day): 33.2 u/L
- ALBUMIN (120 h, time 5 day): 3.74 G/DL
- ALKALINE PHOSPHATASE (120 h, time 5 day): 318 u/L
- ASPARTATE AMINOTRANSFERASE (120 h, time 5 day): 78.6 u/L
- BLOOD UREA NITROGEN (120 h, time 5 day): 6 mg/dL
- CHLORIDE (120 h, time 5 day): 108.4 MEQ/L
- CHOLESTEROL (120 h, time 5 day): 63 mg/dL
- CREATINE PHOSPHOKINASE (120 h, time 5 day): 251 u/L
- CREATININE (120 h, time 5 day): 0.18 mg/dL
- GLUCOSE (120 h, time 5 day): 125.6 mg/dL
- PHOSPHORUS (120 h, time 5 day): 12.06 mg/dL
- POTASSIUM (120 h, time 5 day): 5.92 MEQ/L
- SODIUM (120 h, time 5 day): 146.8 MEQ/L
- TOTAL BILIRUBIN (120 h, time 5 day): 0.16 mg/dL
- TOTAL PROTEIN (120 h, time 5 day): 6.06 G/DL
- ABSOLUTE BASOPHIL (time 7 day): 0 CELLS/uL
- ABSOLUTE EOSINOPHIL (time 7 day): 19 CELLS/uL
- ABSOLUTE LYMPHOCYTE (time 7 day): 7803.5 CELLS/uL
- ABSOLUTE MONOCYTE (time 7 day): 117.83 CELLS/uL
- ABSOLUTE SEGMENTED NEUTROPHIL (time 7 day): 1093 CELLS/uL
- BASOPHIL (time 7 day): 0%
- EOSINOPHIL (time 7 day): 0.17%
- ERYTHROCYTE COUNT (time 7 day): 5.84 x10E6/uL
- HEMATOCRIT (time 7 day): 35.75%
- HEMOGLOBIN (time 7 day): 13.87 G/DL
- LEUKOCYTE COUNT (time 7 day): 9.03 x10E3/uL
- LYMPHOCYTE (time 7 day): 87.17%
- MEAN CORPUSCULAR HEMOGLOBIN (time 7 day): 23.78 pg
- MEAN CORPUSCULAR HEMOGLOBIN CONCENTRATION (time 7 day): 38.8 G/DL
- MEAN CORPUSCULAR VOLUME (time 7 day): 61.25 fL
- MONOCYTE (time 7 day): 1.17%
- NEUTROPHIL (time 7 day): 11.5%
- NUCLEATED RED BLOOD CELLS (time 7 day): 0 /100WBC
- PLATELET COUNT (time 7 day): 1098.67 x10E3/uL
- BASOPHIL (time 28 day): 0.42%
- EOSINOPHIL (time 28 day): 0.58%
- ERYTHROCYTE COUNT (time 28 day): 8.06 x10E6/uL
- HEMATOCRIT (time 28 day): 48.44%
- HEMOGLOBIN (time 28 day): 16.34 G/DL
- LEUKOCYTE COUNT (time 28 day): 13.04 x10E3/uL
- LYMPHOCYTE (time 28 day): 85.12%
- MEAN CORPUSCULAR HEMOGLOBIN (time 28 day): 20.26 pg
- MEAN CORPUSCULAR HEMOGLOBIN CONCENTRATION (time 28 day): 33.74 G/DL
- MEAN CORPUSCULAR VOLUME (time 28 day): 60.1 fL
- MONOCYTE (time 28 day): 1.44%
- NEUTROPHIL (time 28 day): 11.28%
- PLATELET COUNT (time 28 day): 1226 x10E3/uL
- ALANINE AMINOTRANSFERASE (time 7 day): 66 u/L
- ALBUMIN (time 7 day): 4.3 G/DL
- ALKALINE PHOSPHATASE (time 7 day): 291.83 u/L
- ASPARTATE AMINOTRANSFERASE (time 7 day): 80.5 u/L
- BLOOD UREA NITROGEN (time 7 day): 15.67 mg/dL
- CARBON DIOXIDE (time 7 day): 30 mmol/L
- CHLORIDE (time 7 day): 101.67 MEQ/L
- CHOLESTEROL (time 7 day): 69.67 mg/dL
- CREATINE PHOSPHOKINASE (time 7 day): 363.33 u/L
- CREATININE (time 7 day): 0.25 mg/dL
- GLUCOSE (time 7 day): 146.5 mg/dL
- LACTATE DEHYDROGENASE (time 7 day): 219.67 u/L
- LIPASE (time 7 day): 11.33 u/L
- PHOSPHORUS (time 7 day): 10.08 mg/dL
- POTASSIUM (time 7 day): 5.22 MEQ/L
- SODIUM (time 7 day): 144.67 MEQ/L
- TOTAL BILIRUBIN (time 7 day): 0.12 mg/dL
- TOTAL PROTEIN (time 7 day): 6.33 G/DL
- URIC ACID (time 7 day): 0.75 mg/dL
- ALANINE AMINOTRANSFERASE (time 28 day): 28.6 u/L
- ALBUMIN (time 28 day): 3.94 G/DL
- ALKALINE PHOSPHATASE (time 28 day): 254.6 u/L
- ASPARTATE AMINOTRANSFERASE (time 28 day): 67.8 u/L
- BLOOD UREA NITROGEN (time 28 day): 10.4 mg/dL
- CHLORIDE (time 28 day): 104.6 MEQ/L
- CHOLESTEROL (time 28 day): 57.6 mg/dL
- CREATINE PHOSPHOKINASE (time 28 day): 224.8 u/L
- CREATININE (time 28 day): 0.4 mg/dL
- GLUCOSE (time 28 day): 140.6 mg/dL
- PHOSPHORUS (time 28 day): 10.66 mg/dL
- POTASSIUM (time 28 day): 6.58 MEQ/L
- SODIUM (time 28 day): 148.6 MEQ/L
- TOTAL BILIRUBIN (time 28 day): 0.24 mg/dL
- TOTAL PROTEIN (time 28 day): 6.64 G/DL
